Data published in ChEMBL document CHEMBL1201862, “PubChem BioAssay data set” (2004).
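Each compound was tested at five concentrations against cells in 96-well plates for 48 hours. Abbreviation: GI50, concentration required for 50% inhibition of growth.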 The source made the active and inactive calls. Cut-off read from the data, not from the text of the source: active = GI50 up to about 1.1 µM and inactive = higher.

Experiments:
Assay in all cases: DTP human tumour cell line panel, 48 h
TK-10 = system: TK-10
OVCAR-3 = system: OVCAR-3
NCI-H226 = system: NCI-H226
MDA-MB-435 = system: MDA-MB-435
M14 = system: M14
SK-MEL-28 = system: SK-MEL-28
K562 = system: K562
IGROV-1 = system: IGROV-1
A498 = system: A498
MDA-MB-231 = system: MDA-MB-231
UACC-62 = system: UACC-62
ACHN = system: ACHN
HCT-116 = system: HCT-116
Malme-3M = system: Malme-3M
LOX IMVI = system: LOX IMVI
HCT-15 = system: HCT-15
KM12 = system: KM12
SR = system: SR
DU-145 = system: DU-145
U-251 = system: U-251
RXF 393 = system: RXF 393
MCF7 = system: MCF7
786-0 = system: 786-0
OVCAR-5 = system: OVCAR-5
CAKI-1 = system: CAKI-1
HOP-62 = system: HOP-62
NCI-H23 = system: NCI-H23
OVCAR-8 = system: OVCAR-8
CCRF-CEM = system: CCRF-CEM
Hs-578T = system: Hs-578T
SF-295 = system: SF-295
SNB-75 = system: SNB-75
HT-29 = system: HT-29
PC-3 = system: PC-3
COLO 205 = system: COLO 205
NCI-H460 = system: NCI-H460
SN12C = system: SN12C
UACC-257 = system: UACC-257
SK-MEL-5 = system: SK-MEL-5
SF-539 = system: SF-539
SNB-19 = system: SNB-19
NCI/ADR-RES = system: NCI/ADR-RES
SK-MEL-2 = system: SK-MEL-2
SW-620 = system: SW-620
MDA-N = system: MDA-N
SK-OV-3 = system: SK-OV-3
MOLT-4 = system: MOLT-4
SF-268 = system: SF-268
HL-60 = system: HL-60
EKVX = system: EKVX
BT-549 = system: BT-549
RPMI-8226 = system: RPMI-8226
A549 = system: A549
OVCAR-4 = system: OVCAR-4
HOP-92 = system: HOP-92
UO-31 = system: UO-31
NCI-H522 = system: NCI-H522
HCC 2998 = system: HCC 2998

With `O=C(CN1CCOCC1)c1ccc2c(c1)oc(=O)n2CCN1CCCC1` the GI50 (TK-10) was > 100 µM (inactive), the GI50 (OVCAR-3) was > 100 µM (inactive) and the GI50 (NCI-H226) was > 100 µM (inactive). The GI50 (MDA-MB-435) was > 100 µM (inactive), the GI50 (M14) was > 100 µM (inactive) and the GI50 (SK-MEL-28) was > 100 µM (inactive). For the same compound, the GI50 (K562) was > 100 µM (inactive), the GI50 (IGROV-1) was > 100 µM (inactive) and the GI50 (A498) was > 100 µM (inactive). The GI50 (MDA-MB-231) was > 100 µM (inactive), the GI50 (UACC-62) was > 100 µM (inactive) and the GI50 (ACHN) was > 100 µM (inactive). The GI50 (HCT-116) was > 100 µM (inactive), the GI50 (Malme-3M) was > 100 µM (inactive) and the GI50 (LOX IMVI) was > 100 µM (inactive). For the same compound, the GI50 (HCT-15) was greater than 100 µM, the GI50 (KM12) was > 100 µM (inactive) and the GI50 (SR) was > 100 µM (inactive). The GI50 (DU-145) was > 100 µM (inactive), the GI50 (U-251) was > 100 µM (inactive) and the GI50 (RXF 393) was > 100 µM (inactive). The GI50 (MCF7) was > 100 µM (inactive), the GI50 (786-0) was > 100 µM (inactive) and the GI50 (OVCAR-5) was > 100 µM (inactive). For the same compound, the GI50 (CAKI-1) was > 100 µM (inactive), the GI50 (HOP-62) was > 100 µM (inactive) and the GI50 (NCI-H23) was > 100 µM (inactive). For the same compound, the GI50 (OVCAR-8) was > 100 µM (inactive), the GI50 (CCRF-CEM) was > 100 µM (inactive) and the GI50 (Hs-578T) was > 100 µM (inactive). The GI50 (SF-295) was > 100 µM (inactive), the GI50 (SNB-75) was > 100 µM (inactive) and the GI50 (HT-29) was > 100 µM (inactive). For the same compound, the GI50 (PC-3) was > 100 µM (inactive), the GI50 (COLO 205) was > 100 µM (inactive) and the GI50 (NCI-H460) was > 100 µM (inactive). For the same compound, the GI50 (SN12C) was > 100 µM (inactive), the GI50 (UACC-257) was > 100 µM (inactive) and the GI50 (SK-MEL-5) was > 100 µM (inactive). For the same compound, the GI50 (SF-539) was > 100 µM (inactive), the GI50 (SNB-19) was > 100 µM (inactive) and the GI50 (NCI/ADR-RES) was > 100 µM (inactive). The GI50 (SK-MEL-2) was > 100 µM (inactive), the GI50 (SW-620) was > 100 µM (inactive) and the GI50 (MDA-N) was > 100 µM (inactive). For the same compound, the GI50 (SK-OV-3) was > 100 µM (inactive), the GI50 (MOLT-4) was > 100 µM (inactive) and the GI50 (SF-268) was > 100 µM (inactive). For the same compound, the GI50 (HL-60) was > 100 µM (inactive), the GI50 (EKVX) was > 100 µM (inactive) and the GI50 (BT-549) was > 100 µM (inactive). The GI50 (RPMI-8226) was > 100 µM (inactive).
`CN(CCCCCl)P(=O)(OCC1=CC(=O)c2ccccc2C1=O)OC[C@H]1O[C@@H](n2cc(F)c(=O)[nH]c2=O)C[C@@H]1O` (some centres undefined) was tested, and the GI50 (TK-10) was 1.45 µM (inactive), the GI50 (OVCAR-3) was 0.109 µM (active) and the GI50 (NCI-H226) was 0.521 µM (active). The GI50 (MDA-MB-435) was 0.684 µM (active), the GI50 (M14) was 0.0897 µM (active) and the GI50 (SK-MEL-28) was 4.11 µM (inactive). The GI50 (K562) was 1.5 µM (inactive), the GI50 (A549) was < 0.01 µM (active) and the GI50 (IGROV-1) was 0.124 µM (active). The GI50 (MDA-MB-231) was 3.2 µM (inactive), the GI50 (UACC-62) was 0.0399 µM (active) and the GI50 (ACHN) was < 0.01 µM (active). For the same compound, the GI50 (OVCAR-4) was 0.681 µM (active), the GI50 (HCT-116) was 0.0693 µM (active) and the GI50 (Malme-3M) was 1.1 µM (active). The GI50 (HOP-92) was < 0.0285 µM (active), the GI50 (LOX IMVI) was < 0.01 µM (active) and the GI50 (HCT-15) was 3.66 µM. The GI50 (KM12) was 3.64 µM (inactive), the GI50 (DU-145) was 0.052 µM (active) and the GI50 (RXF 393) was 0.0625 µM (active). The GI50 (MCF7) was < 0.01 µM (active), the GI50 (OVCAR-5) was 4.38 µM (inactive) and the GI50 (CAKI-1) was < 0.0115 µM (active). The GI50 (HOP-62) was 0.0415 µM (active), the GI50 (NCI-H23) was 0.0532 µM (active) and the GI50 (OVCAR-8) was 0.0378 µM (active). For the same compound, the GI50 (UO-31) was < 0.01 µM (active), the GI50 (NCI-H522) was 0.239 µM (active) and the GI50 (CCRF-CEM) was < 0.01 µM (active). The GI50 (Hs-578T) was < 0.01 µM (active), the GI50 (SF-295) was < 0.0175 µM (active) and the GI50 (SNB-75) was < 0.0176 µM (active). The GI50 (PC-3) was 0.165 µM (active), the GI50 (NCI-H460) was < 0.01 µM (active) and the GI50 (SN12C) was < 0.0323 µM (active). For the same compound, the GI50 (UACC-257) was 6.17 µM (inactive), the GI50 (SK-MEL-5) was 0.0334 µM (active) and the GI50 (SF-539) was < 0.0244 µM (active). For the same compound, the GI50 (SK-MEL-2) was 8.09 µM (inactive), the GI50 (SW-620) was 3.51 µM (inactive) and the GI50 (HCC 2998) was < 0.01 µM (active). For the same compound, the GI50 (MDA-N) was 0.753 µM (active), the GI50 (SF-268) was < 0.01 µM (active) and the GI50 (HL-60) was 0.69 µM (active). For the same compound, the GI50 (EKVX) was 3.18 µM (inactive) and the GI50 (BT-549) was 9.06 µM (inactive).
